Measured values: US20210315898A1, “COMBINATION THERAPY FOR TREATING CANCER” (AstraZeneca AB, priority 2018, published 2021)

What was measured:
HL-60 AML cells = assay: HL-60 subcutaneous xenograft model of AML, tumor volume and survival; format: in vivo, SCID mice; details: HL-60 xenograft, FIG. 2; AZD2811 nanoparticles 25 mg/kg iv once weekly; 5-azacytidine 1 mg/kg ip twice-daily for three days, 4 rest days; 3 weekly cycles, start day 7; monotherapy compared with KG1a model
Method: (§1) HL-60: 1×10^7 HL-60 AML cells in 50% matrigel were implanted subcutaneously on the left flank of adult female SCID mice. Mice were randomised into groups of 12 and dosing was started for all drugs and all combinations at day 7 respectively following implant. AZD2811 nanoparticles were dosed at once weekly with a 20-30 s intravenous infusion at either 25 mg/kg (100 mg/kg was the maximum tolerated dose in combination 5-azacytidine at 1 mg/kg; 5-azacytidine was dosed twice-daily for three days by the intraperitoneal route, followed by 4 rest days of no dosing). All drugs were given for 3 weekly cycles. Tumors were measured twice weekly by single operators, and all dosing was performed by randomised cage to minimise systematic bias. Mice reached study survival endpoint when tumors reached 1.5 cm^3

KG1a AML cells = assay: KG1a subcutaneous xenograft model of AML, tumor volume; format: in vivo, SCID mice; details: FIG. 1, AZD2811 nanoparticles 100 mg/kg iv once weekly, 5-azacytidine 1 mg/kg ip twice-daily for three days, 4 rest days, 3 weekly cycles, start day 1
Method: as §1, with “KG1a: 2×10^7 KG1a” for “HL-60: 1×10^7 HL-60”, “1 (D1)” for “7 respectively”, “100” for “either 25”, “surival” for “survival”, “cm^3.” for “cm^3”

Nc1ncn([C@@H]2O[C@H](CO)[C@@H](O)[C@H]2O)c(=O)n1 [5-azacytidine, 4-amino-1-(β-D-ribofuranosyl)-1,3,5-triazin-2(1H)-one]
efficacy (reduction in tumor volume over time) (HL-60 AML cells): greater efficacy | efficacy (reduction in tumor volume over time) (KG1a AML cells): modestly efficacious
